# Measured values reported in US9868690B2, “Prodrugs of monomethyl fumarate (MMF)” (RATIOPHARM GMBH, priority 2013, dated 2018).
# Structures can show the parent of a compound that is named as a salt.
# Test: Kinetic of MMF-release during incubation in intestinal fluid from the minipig
# Type: in vitro ADME, Göttingen SPF minipig
# Details: incubation in minipig small intestinal fluid diluted 1/20 v/v with 50 mM KH2PO4, pH 6.8, 37° C., samples 0-120 min (up to 1,320 min); reference DMF
# Method: Investigation and Comparison of the Kinetic of MMF-Release of the Different Compounds of the Present Invention and DMF During Incubation in Intestinal Fluid from the Minipig
# Intestinal fluid samples were prepared at CiToxLAB Scantox A/S. The samples were taken from 1 female Göttingen SPF minipig from CiToxLAB Scantox A/S standard stock, originally obtained from Ellegaard Göttingen Minipigs A/S, DK-4261 Dalmose, Denmark. The minipig was 10 months old and the body weight was 21 kg. The minipig was identified by an individual number tagged to the pinna of one ear (animal number is documented in the raw data).
# The minipig was fasted for approximately 28 hours before sampling of intestinal fluid. On the day of sampling, the minipig was weighed and anaesthetised by an intramuscular injection in the neck or in the left hind leg (about 0.3 ml per kg body weight) of a mixture of Zoletil 50 Vet., Virbac, France (125 mg tiletamine and 125 mg zolazepam), Rompun Vet., Bayer, Germany (20 mg xylazine/ml, 6.5 ml), Ketaminol Vet., Veterinaria AG, Switzerland (100 mg ketamine/ml, 1.5 ml) and Methadon DAK, Nycomed Danmark, Denmark (10 mg methadon/ml, 2.5 ml).
# Intestinal fluid was obtained by flushing one jejunal segment, measuring 30.2 cm, with saline. Intestinal fluid together with saline used for flushing was placed in centrifuge tubes. All samples were frozen at −70° C. and shipped on dry ice to the Sponsor for further use.
# • Instrument: Acquity UPLC system coupled with a TQ detector (triple quadruple mass spectrometer) UPLC Method: • Column: Phenomenex Kinetex C18, 100 A, 2.6 μm (150×4.6 mm) • flow: 0.4 ml/min • split: appr. 100 μl/min to MS • temperature 30° C. • solvent system (isocratic): • Solvent A 25% water with 0.1% acetic acid • Solvent B 75% methanol with 0.1% acetic acid • stoptime: 6 min • autosampler temperature: 8° C. • injection volume: 4 μl • retention time: MMF: 4.3 min • MEF: 4.7 min Mass Spectrometry • software: Masslynx 4.1 • detection mode: electrospray/negative ions (ESP−) • capillary voltage: 2.3 kV • source temperature: 100° C. • desolvation temperature: 450° C. • cone voltage: 18 V • desolvation gas: N2, 650 L/h • cone gas: N2, 20 L/h • collision gas: argon, appr. 3.3*10^−3 mbar • collision energy: 11 eV • MRM [m/z]: 128.94>85.03 Monomethylfumarate dwell:200 msec • 142.99>99.06 Monoethylfumarate (ISTD) dwell:200 msec 2.1.2. Stock and Calibration Solutions
# Calibration solutions were prepared by serial dilution of SSMMF; diluted small intestinal fluid (diluted by 1/20 v/v with 50 mM KH2PO4, pH 6.8; (dil IF) was used as matrix. The dilution scheme is given below:
# 50 μl sample (calibration solution or sample of an incubation experiment with MMF prodrugs) was mixed with 50 μl WSISTD, 20 μl formic acid and 100 μl acetonitrile. This mixture was vortexed for 15 sec and centrifuged (13,000 rpm, 3 min). Thereafter, 4 μl of the supernatant were subjected to LC-MS analysis.
# 2.2. Incubation Experiments with DMF (Reference) and Compounds of the Invention
# Stock solutions were prepared in DMSO or in DMSO with 10% (v/v) with water. Concentrations in stock solutions were 5.00, 2.50 and 1.67 mmol for compounds with one, two and three molar MMF equivalents.
# In a HPLC glass vial, 8 μl of stock solution were mixed with 792 μl dil IF and the mixture was stirred (250 rpm) in a water bath (T=37° C.).
# Immediately after mixing as well as at t=15 min, 30 min, 60 min, 90 min and 120 min, 50 μl were withdrawn and prepared for LC-MS analysis as described in chapter. 2.1.3.
# Incubations were continued and in case the result of analysis of the 120 min indicated the presence of remaining intact MMF-prodrug, additional samples were taken (t=360 or 420 min and at 1,260 or 1,320 min) and analysed.
# The concentration/peak area ratio data pairs were subjected to regression analysis with 1/x weighting and the resulting calibration equation was used to quantify the MMF content in incubation samples.
row,Compound,"hydrolysis to MMF (MMF release, LC-MS) compared with DMF"
1,"COC(=O)/C=C/C(=O)OCCN1CCS(=O)(=O)CC1 [Example 1a, (E)-But-2-enedioic acid 2-(1,1-dioxo-1-lambda*6*-thiomorpholin-4-yl)-ethyl ester methyl ester]",significantly slower hydrolysis to MMF than DMF
2,"COC(=O)/C=C/C(=O)OCCN1CC[S+]([O-])CC1 [Example 1a′, (E)-But-2-enedioic acid methyl ester 2-(1-oxo-1lambda*4*-thiomorpholin-4-yl)-ethyl ester]",significantly slower hydrolysis to MMF than DMF
3,"COC(=O)/C=C/C(=O)OCCN1CCN(C)CC1 [Example 1b, (E)-But-2-enedioic acid methyl ester 2-(4-methyl-piperazin-1-yl) ethyl dihydrochloride]",significantly slower hydrolysis to MMF than DMF
4,"COC(=O)/C=C/C(=O)OCCN1CCN(C(C)C)CC1 [Example 1c, (E)-But-2-enedioic acid methyl ester 2-(4-isopropyl-piperazin-1-yl) ethyl dihydrochloride]",significantly slower hydrolysis to MMF than DMF
5,"COC(=O)/C=C/C(=O)OCCN(CCOC(=O)/C=C/C(=O)OC)CCOC(=O)/C=C/C(=O)OC [Example 2, tris-[2-(E)-3-methoxycarbonylacryloyloxy)-ethyl]amine hydrochloride]",significantly slower hydrolysis to MMF than DMF
6,"COC(=O)/C=C/C(=O)OCC(COC(=O)/C=C/C(=O)OC)OC(=O)/C=C/C(=O)OC [Example 3, (E)-but-2-enedioic acid 2,3-bis-(-3-methoxycarbonyl-acryloyloxy)-propyl ester methyl ester]",significantly slower hydrolysis to MMF than DMF
7,"COC(=O)/C=C/C(=O)OCOP(=O)(OC(C)(C)C)OC(C)(C)C [Example 4a, (E)-but-2-enedioic acid di-tert-butoxy-phosphoryloxymethyl ester methyl ester]",significantly slower hydrolysis to MMF than DMF
8,"COC(=O)/C=C/C(=O)OCCOC(=O)[C@@H](N)C(C)C [Example 5a, (E)-but-2-enedioic acid 2-((S)-2-amino-3-methyl-butyrryloxy)-ethyl ester methyl ester hydrochloride]",significantly slower hydrolysis to MMF than DMF
9,"COC(=O)/C=C/C(=O)OCc1oc(=O)oc1C [Example 6, (E)-but-2-enedioic acid methyl ester5-methyl-2-oxo-[1,3]dioxol-4-yl methyl ester]",significantly slower hydrolysis to MMF than DMF
